Experimental data: patent US20070142395A1, “Treatment of sexual dysfunction with 1-[3-[4-(3-chlorophenyl)-1-piperazinyl]propyl]-5-methoxy-3,4-dihydro-2(1H)-quinolone or salt thereof” (Vela Pharmaceuticals, Inc., priority 2005, published 2007)

Test system: depressed patients
Test: Comparison of change in CSFQ score (difference from placebo) with bupropion XL and escitalopram, FIG. 1
Assay type: in vivo, Humans
Conditions: overall and virtually every CSFQ subscale, bupropion XL data from Clayton et al.
Procedure: FIG. 1 depicts the difference in the Changes in Sexual Function Questionaire (CSFQ) scores (difference from placebo) from baseline to week 8 for OPC-14523, buproprion XL and escitalopram. The data for bupropion XL and escitalopram were obtained from Clayton et al., 45th Annual NCDEU Meeting, Session 1-21, Boca Raton, Fla., June 6-9, 2005. For the Clayton et al. data, N=273 (placebo), 276 (bupropion XL, 300-400 mg) and 281 (escitalopram, 10-20 mg).
There is evidence that bupropion reduces the sexual dysfunction in depressed patients, and may be useful as a treatment for sexual dysfunction. Therefore, the data of OPC-14523 effect on sexual dysfunction discussed above were compared to data on the effects of bupropion XL and escitalopram on sexual function reported by Clayton et al. (45th Annual NCDEU Meeting, Boca Raton, Fla. June 6-9, 2005).
The comparison was based on the change in CSFQ score from baseline to week 8. The changes were assessed by subtracting the placebo score from the treated score at baseline and at week 8, then taking the difference of these two numbers.

COc1cccc2c1CCC(=O)N2CCCN1CCN(c2cccc(Cl)c2)CC1 [OPC-14523, 1-[3-[4-(3-chlorophenyl)-1-piperazinyl]propyl]-5-methoxy-3,4-dihydro-2(1H)-quinolone]
change in CSFQ score from baseline to week 8 (difference from placebo), compared to bupropion XL: larger improvement
